Assay results reported in patent US20050137175A1, “Use of ecdysteroids for preparing dermatological or cosmetological anti-hair loss compositions” (L'OREAL, priority 2003, published 2005).

What was measured:
[1] = system: C3H murine model; details: cited from earlier work
[2] = system: human hair follicle; experiment: Human hair follicle survival in vitro model; assay type: cell-based
Experimental: We had developed and patented a model for a surviving human follicle in vitro (FR 95-08465) making it possible to evaluate the effect of a substance on follicle survival and extension. We used this in vitro model for evaluating the effect of ecdysterone on hair follicle growth and survival. Various concentrations of this substance were tested: 0.01 μg/ml, 0.1 μg/ml, 1 μg/ml and 10 μg/ml.

[3] = system: hair follicle; experiment: Maintenance of hair follicle integrity in vitro (antibody labelling of compartment markers Ki67, keratin K14, transglutaminase, keratin hHa5); assay type: cell-based, human; details: 14 days of culture, ecdysterone 0.01 μg/ml, compared with reference follicle at D=0
Source text: In order to characterize more fully the effect of this substance on the hair follicle, we monitored the mitotic activity of the bulb cells and also the various specific differentiation programmes of the outer sheath, of the inner sheath and of the pilar shaft, in the presence or absence of this substance.
The integrity of the follicle compartments after 14 days of culture was thus monitored by means of antibodies that recognize markers specific for each of these compartments: the mitosis marker Ki67, specific for the matrix (S. Commo & B. A. Bernard, 1997, Br. J. Dermatol. 137: 31-38); keratin K14, specific for the outer sheath (ibid.); transglutaminase, specific for the inner sheath (ibid.); and keratin hHa5, specific for the pillar shaft, and in particular the keratogenic zone and the cuticle (L. Langbein et al., 1999, J. Biol. Chem. 274: 19874-19884).

CC(C)(O)CC[C@@H](O)[C@](C)(O)[C@H]1CC[C@@]2(O)C3=CC(=O)[C@@H]4C[C@@H](O)[C@@H](O)C[C@]4(C)[C@H]3CC[C@]12C [ecdysterone]
hair regrowth [1]: stimulate hair regrowth | human hair follicle survival in vitro ([2]; ecdysterone 0.01 μg/ml): significantly increases human hair follicle survival | human hair follicle survival in vitro ([2]; ecdysterone 0.1 μg/ml): significantly increases human hair follicle survival | human hair follicle survival in vitro ([2]; ecdysterone 10 μg/ml): significantly increases human hair follicle survival | expression of follicle compartment markers (Ki67, keratin K14, transglutaminase, keratin hHa5) [3]: all the markers studied conserve an expression that is comparable to that of the reference follicle at D=0
